This series relates to double stranded DNA with the sequence of 5′-gctaaaaagaaagagagatcg-3′ (SEQ ID NO: 3) and its complementary strand 5′-cgatctctctttctttttagc-3′ (SEQ ID NO: 4). In words: Measurement of Tm for determination of activity of triplet formation. It is filed as binding. Particulars: 7 mM sodium phosphate buffer pH 7.0, 140 mM KCl, 1.5 μM each nucleotide, UV 260 nm.

[3'-NH2-LNA] = 3'-amino-3'-deoxy-2'-O,4'-C-methylene-5-methyluridine; d = 2'-deoxy (DNA)

For “Oligonucleotide (2): 5′-tttttmtntmtmtmt-3′ (SEQ ID NO: 2), m is 5-methyl 2′-deoxycytidine, n is 3′-amino-3′-deoxy-2′-O,4′-C-methylene-5-methyluridine (TTTTTCTTTCTCTCT; sugars from the 5' end d7 [3'-NH2-LNA]1 d7, all C 5-methyl, backbone not given here; triplex-forming oligonucleotide, further chemistry not fully specified)”, the Tm is 55 °C (With MgCl2 (10 mM)) and 44 °C (Without MgCl2).

Regarding “Oligonucleotide (3): natural oligonucleotide which forms a triplet, 5′tttttmtttmtmtmt-3′ (SEQ ID NO: 5), m is 5-methyl-2′deoxycytidine (TTTTTNTTTNTNTNT; 5-methyl-2'-deoxycytidine, chemistry not fully specified)”, the Tm (With MgCl2 (10 mM)) is 44 °C and the Tm (Without MgCl2) turned out to be 32 °C.

Source of the values: patent US7217805B2, “Bicyclonucleoside analogues” (Sankyo Company, Limited, priority 1999, dated 2007).
